These results are taken from PubChem BioAssay (NCI).

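Following 48 hours of exposure in 96-well plates, responses at five concentrations were used to interpolate endpoints linearly. TGI: concentration producing complete growth inhibition.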

Test systems include DMS 114 small cell lung; DMS 273 small cell lung; KM20L2 colon; LXFL 529 NSCLC; SNB-78 CNS; XF 498 CNS; P388 leukemia; P388/ADR leukemia; SN12K1 renal.
Holding throughout (experiment): NCI tumour cell line growth inhibition, 48 h

`CN(C)CC(C)(C)C(=O)/C=C/c1ccccc1`: the TGI turned out to be 29.1 µM in the assay with DMS 114 small cell lung; 47.7 µM with DMS 273 small cell lung; 28.8 µM with KM20L2 colon; 24.9 µM in the assay with LXFL 529 NSCLC; 88.6 µM in the assay on SNB-78 CNS; 23.8 µM in the assay with XF 498 CNS.
On to `CC1[C@@H]2C[C@@H]3O[C@@]34[C@H]3CCC5Cc6nc7c(nc6C[C@@]5(C)C3(O)CC(=O)[C@@]24CO[C@]12OC(C)(C)CC2O)CC1CC[C@@H]2C3=C[C@H]4O[C@@]5(O[C@@](C)(CO)C[C@@H]5O)C(C)[C@@]4(O)[C@]3(C)[C@@H](O)CC2[C@]1(C)C7` (stereo partly drawn), for which the TGI with DMS 114 small cell lung was found to be 1.09 µM; in the assay with DMS 273 small cell lung, 0.0177 µM; with KM20L2 colon, 0.244 µM; with P388 leukemia, 0.357 µM; in the assay with P388/ADR leukemia it was 0.232 µM; with SN12K1 renal, 0.666 µM. For the same compound, the figures for the TGI in the assay on SNB-78 CNS and with XF 498 CNS were 0.622 µM and 0.0328 µM, respectively.
In the case of `C[S+](C)C1(c2ccccc2)C(=O)c2ccccc2C1=O`, the TGI was more than 100 µM in the assay with DMS 114 small cell lung; more than 100 µM in the assay on DMS 273 small cell lung; more than 100 µM in the assay with KM20L2 colon; more than 100 µM in the assay with LXFL 529 NSCLC; more than 100 µM in the assay with SNB-78 CNS; 94 µM with XF 498 CNS.
With `CN(C)CCSc1nccc(-c2ccc(-c3ccnc(SCCN(C)C)n3)s2)n1`, the TGI came to 25.5 µM in the assay with DMS 114 small cell lung; 22.8 µM in the assay on DMS 273 small cell lung; 23.6 µM in the assay on KM20L2 colon; 3.18 µM with P388 leukemia; 6.74 µM in the assay on P388/ADR leukemia; 24.6 µM in the assay with SN12K1 renal. Also, the results for the TGI in the assay with SNB-78 CNS and in the assay with XF 498 CNS were 31 µM and 29.4 µM, respectively.
